From patent publication US20050090531A1, “MAG expression promoters” (priority 1999, published 2005)

Legend:
Format in all cases: cell-based, rat
[1] = tested on: myelin-related glycoprotein (MAG); assay: Time-course of MAG expression in DRG nerve cell/Schwann cell co-culture, Experimental Example 3; conditions: 10 μmol/ml, added every 2 days
Experimental: According to the method described in Experimental Example 1, DRG nerve cells and Schwann cells were co- cultured. A DMSO solution containing the compound of the present invention (Y-128, […]) or ascorbic acid (50 μg/ml) as a positive control compound was added to the medium every 2 days. The medium DMSO was added in the same manner as was the negative control compound. In the same manner as in Experimental Example 2, MAG was quantitatively determined before addition of the compounds and 3, 6, 9, 12, 15 and 18 days after addition.

[2] = tested on: myelination of axon in co-cultured DRG nerve cells and Schwann cells; assay: Myelination of axon in co-culture of DRG nerve cells and Schwann cells (Sudan Black B myelin staining), Experimental Example 1; conditions: 2 weeks of co-culture
Experimental: The preparation of nerve cell followed the method of Seung U. Kim (Experimental Protocols for Brain and Nerve—From cultured cell to functional analysis, ed. Katsuhiko Mikoshiba, Takao Shimizu, Yodosha). That is, an embryo was taken out from a 18-day pregnant female rat (Crj: CD(SD)IGS), from which dorsal spinal nerve root ganglia (hereinafter to be referred to as DRG) was removed under a stereoscopic microscope. DRG was treated with 0.25% trypsin and DNase I at 37° C. to disperse the cells. Adherent cells other than nerve cells were removed and the cells (5000 cells) were plated on a polylysine-coated plate. The cells were cultured in DMEM containing 10% FCS supplemented with the nerve growth factor (hereinafter to be referred to as NGF, 50 ng/ml) in a CO2 incubator. After 3 days of culture, the medium was changed to one containing Ara-C (1 μmol/l) to remove proliferative cells other than the nerve cells.
The preparation of Schwann cells followed the method of Ichiro Matsuoka (Springer Neuroscience Lab Manual 1, ed. Hiroshi Hatanaka, Springer-Verlag Tokyo). That is, the sciatic nerve of a neonatal rat (1 to 3 days postnatal, (Crj: CD(SD)IGS)) was removed under a stereoscopic microscope and adventitia was removed. By treating with trypsin/collagenase and DNase I in CMF-HBSS, the cells were dispersed. Using a culture flask, the cells were cultured in DMEM containing 10% FCS in a CO2 incubator. After culturing in a medium containing Ara-C, the cells were recovered and the cell suspension was treated successively with anti-Thy 1.1 and rabbit complement to remove cells other than the Schwann cells. Using a collagen-coated culture flask, the cells were cultured in DMEM containing 10% FCS in a CO2 incubator.
After 1 week from the start of the culture of DRG nerve cells, Schwann cells (20,000 cells) were plated on a plate in which DRG nerve cells had been cultured. he medium for co-culture was DMEM containing 2 μmol/l f forskolin, 50 ng/ml of NGF and 10% FCS. […]

[3] = tested on: myelin-related glycoprotein (MAG); assay: MAG expression in DRG nerve cell/Schwann cell co-culture by immunoblotting, concentration dependence, Experimental Example 2; conditions: tested at 1, 3, 10 or 30 μmol/l, added every 2 days for 2 weeks; immunoblot, semi-quantitative
Experimental: According to the method described in Experimental Example 1, DRG nerve cells and Schwann cells were co-cultured. A DMSO solution containing the compound of the present invention (Y-128, 1, 3, 10 or 30 μmol/l) or ascorbic acid (50 μg/ml) as a positive control compound was added to the medium every 2 days for 2 weeks. As a negative control compound, the vehicle DMSO was added in the same manner. After 2 weeks from the start of the addition of the compound, the medium was removed and a sample buffer containing sodium dodecyl sulfate (SDS) was added to the well for solubilization of the cells.
A part thereof was separated by polyacrylamide gel electrophoresis and the migrated protein was transferred to a PVDF membrane. By immunoblotting and chemiluminescence, the objective protein was detected on an X ray film. A band detected at about 100 kDa migration was identified as a signal of myelin-related glycoprotein (MAG). The X ray film was scanned and the image was imported to a computer, and the expression of MAG was semi-quantitatively determined using an analysis software, ImageQuaNT (Molecular Dynamics). […] From the above-mentioned Experimental Example, it was clarified that the compound of the present invention (Y-128) increased the expression of MAG from the concentration of 3 μmol/l.

| Structure (SMILES) | time after addition at which the expression of MAG disappeared [1] | time-course changes of MAG expression compared with positive control ascorbic acid (50 μg/ml) ([1]; up to 18 days) | time after addition at which expression of MAG was increased maximally ([1]; measured 3, 6, 9, 12, 15 and 18 days after addition) | effect on myelination of axon (conclusion) ([2]; 3 μmol/l) | wells in which axon was stained as deep as ascorbic acid addition group ([2]; 3 μmol/l, added every 2 or 3 days, Sudan Black B stain) | concentration from which the expression of MAG was increased [3] | staining of axon (myelin stain) ([2]; 50 μg/ml, added every 2 or 3 days, 12 wells, Sudan Black B stain) |
| --- | --- | --- | --- | --- | --- | --- | --- |
| Cc1ccc(-n2ccnc2)cc1[C@H](O)c1c(C)cc(C(=O)O)cc1C [Y-128, (S)-4-[α-hydroxy-5-(1-imidazolyl)-2-methylbenzyl]-3,5-dimethylbenzoic acid] | 18 days | the same as that by the positive control compound, ascorbic acid | 6 days and 12 days | promoted myelination of axon | 5 wells out of 12 wells | ≥ 3 µmol/L | – |
| O=C1O[C@H]([C@@H](O)CO)C(O)=C1O [ascorbic acid, reference compound] | – | – | – | – | – | – | axon was stained deep in every well |
